Measured values published in patent US20240174684A1, “INHIBITORS OF cGAS ACTIVITY AS THERAPEUTIC AGENTS” (BELLBROOK LABS, LLC, priority 2021, published 2024).
Where two headings read alike, the source gives them in different places.

Experiments:
mouse cGAS = mouse cGAS (Mus musculus, UniProt Q8C6L5); assay: Transcreener cGAS enzymatic assay with mouse cGAS; assay type: biochemical; details: standard conditions, read-out: IC50 with mcGAS
Description: Structural, biochemical and biophysical analysis and selectivity profiling: Potency and MOA studies, including Mn^2+ sensitivity, were performed using the Transcreener cGAS enzymatic assay, which is manufactured at BellBrook Labs (Fitchburg, Wisconsin, USA). This homogenous cGAS enzymatic assay was developed with fluorescence polarization (FP) and time-resolved Forster resonance energy transfer (TR-FRET) readouts, as described in International Patent Publication WO 2020/142729, incorporated by reference herein in its entirety. Plates are read on a PHERAstar FSX multimode reader (BMG). The compounds of the disclosure were tested for inhibition of cGAS ([…]) using this cGAS enzymatic assay under standard conditions (100 μM ATP and GTP, 62.5 nM bp ISD, 60 minute reactions), high ATP and GTP (1 mM) to mimic physiological conditions, in the presence of 200 μM MnCl2, and with mouse cGAS under standard conditions.
Potency with mcGAS is important for vivo efficacy studies and represents a challenge for lead development because mcGAS shares only 57% amino acid identity with human enzyme and there are significant functional differences.

[1] = Pharmacokinetics in C57BL/6 female mice, IV and PO; assay type: in vivo; details: plasma; for AUC: read-out: AUC0-tidc
Description: The pharmacokinetic characteristics of Compound 5 (BBL-100455) were estimated in C57BL/6 female mice following intravenous (IV) bolus and oral (PO) administration.
In short, the compound of the disclosure at 0.6 mg/mL in PBS containing 5% MSO and 25% PEG-400 was administered by IV injection (3 mg/kg). For PO (30 mg/kg), the compound of the disclosure at 3 mg/mL in PBS containing 10% MSO and 50% PEG-400 was orally administered. At the given time points (0.083 h, 0.167 h, 0.25 h, 0.50 h 1 h, 2 h, 4 h, 7 h, 16 h and 24 h), blood samples were collected using heparinized calibrated pipettes. Samples were centrifuged at 15000 rpm for 10 min. Subsequently, blood plasma was collected from the upper layer. The plasma was frozen at −80° C. for later analysis. At 2 h. 7 h and 24 h, brain samples were collected and immediately stored at […] for later analysis.
The analytical curve was constructed using ten non-zero standards with Compound 5 (BBL-100455) concentration ranging from 1 to 2500 ng/ml in the blank plasma and brain tissue. A blank sample (matrix sample processed without internal standard) was used to exclude contamination. The linear regression analysis of BBL- 100455 was performed by plotting the peak area ratio (y) against the BBL-100455 concentrations (x) in ng/ml.
The individual and average compound 5 concentration-time data for IV and PO dosed groups are presented in FIG. 4 for plasma concentration. All PK parameters were estimated using non-compartmental analyses with Phoenix/WINONLIN.

[2] = mouse, IV 3 mg/kg, C57BL/6 female mice
[3] = mouse, PO 30 mg/kg, C57BL/6 female mice

Sequence of mouse cGAS (Q8C6L5 whole entry): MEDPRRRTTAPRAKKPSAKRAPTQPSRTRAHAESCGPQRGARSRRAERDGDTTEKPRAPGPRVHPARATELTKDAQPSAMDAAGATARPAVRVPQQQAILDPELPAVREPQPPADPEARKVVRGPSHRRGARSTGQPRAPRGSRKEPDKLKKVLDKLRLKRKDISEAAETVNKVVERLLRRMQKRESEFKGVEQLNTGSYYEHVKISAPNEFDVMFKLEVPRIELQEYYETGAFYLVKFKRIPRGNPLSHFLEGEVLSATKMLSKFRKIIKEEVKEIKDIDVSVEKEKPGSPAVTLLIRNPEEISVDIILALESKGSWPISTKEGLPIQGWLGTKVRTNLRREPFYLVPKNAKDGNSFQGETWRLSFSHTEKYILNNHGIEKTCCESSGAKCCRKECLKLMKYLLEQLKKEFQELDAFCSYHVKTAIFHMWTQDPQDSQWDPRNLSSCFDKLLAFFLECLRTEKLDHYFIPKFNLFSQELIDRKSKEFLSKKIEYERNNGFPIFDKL

Cc1nc(N2C[C@@H](CC(=O)Nc3ccc(-c4ccccc4)cc3)C[C@H]2C(=O)O)c2oc3ccccc3c2n1 [Compound 5, (2S,4R)-4-(2-([1,1′-biphenyl]-4-ylamino)-2-oxoethyl)-1-(2-methylbenzofuro[3,2-d]pyrimidin-4-yl)pyrrolidine-2-carboxylic acid]
IC50 (mouse cGAS): 4.23 µM
Vss ([1]; IV 3 mg/kg, C57BL/6 female mice): 0.853 L/kg
bioavailability ([1]; female, C57BL/6, mouse, PO 30 mg/kg vs IV 3 mg/kg, bioavailability): 29.3%
AUC(0-inf) [1, 2]: 4860 ng·h/mL
clearance [1, 2]: 10.3 mL/min/kg
half-life [1, 2]: 2.3 h
AUC [1, 2]: 4630 ng·h/mL
AUC(0-inf) [1, 3]: 13600 ng·h/mL
CL/F [1, 3]: 36.8 mL/min/kg
Cmax [1, 3]: 2870 ng/mL
Tmax [1, 3]: 0.5 h
half-life [1, 3]: 2.25 h
AUC [1, 3]: 13600 ng·h/mL
